“And” between values parts separate entries of the source, which are not always exact repeats. Identical values can stand only once.
Tested on: patients with relapsed or refractory (R/R) AML
[1] = all patients (N = 40), onvansertib + LDAC or decitabine, patients n (%)
[2] = phase Ib, onvansertib + LDAC or decitabine

Description: Treatment plan and study design: Onvansertib was administered orally, in escalating doses, on days 1 through 5 in combination with either LDAC (arm A, 20 mg/m^2 subcutaneously once daily on days 1 through 10) or decitabine (arm B, 20 mg/m^2 intravenously over 1 hour on days 1 through 5) in a 28-day cycle. […] The primary objectives were to evaluate dose-limiting toxicities (DLTs) and the maximum tolerated dose (MTD) or recommended phase 2 dose (RP2D) of onvansertib. […] Each arm followed a standard 3+3 dose-escalation design, in which onvansertib dose was escalated by 50% increments. […] If a DLT was reported, an additional 3 patients were treated at that dose. If ≥2 patients experienced a DLT, the dose was considered nontolerated, and lower doses were explored in subsequent cohorts. […] The MTD was defined as the highest dose achieved at which no more than one of six subjects experienced a DLT. The RP2D was determined based on the assessment of safety, pharmacokinetics, and preliminary efficacy in subjects treated at a dose cleared for safety. For the study, the primary endpoint was to evaluate first-cycle dose-limiting toxicities and the MTD. Secondary and exploratory endpoints included safety, pharmacokinetics, antileukemic activity, and response biomarkers.
Safety: Patients were evaluable for safety if they had received at least one dose of onvansertib. […] Investigators assessed causality as either unrelated, unlikely, possibly, probably, or definitely related to study drugs. DLTs (defined in Table 1) were evaluated during the first cycle of treatment.

Structure (SMILES): CN1CCN(c2ccc(OC(F)(F)F)c(Nc3ncc4c(n3)-c3c(c(C(N)=O)nn3CCO)CC4)c2)CC1 [onvansertib, 1-(2-hydroxyethyl)-8-{[5-(4-methylpiperazin-1-yl)-2-(trifluoromethoxy)phenyl]amino}-4,5-dihydro-1H-pyrazolo [4,3-h] quinazoline-3-carboxamide]
- G3 stomatitis possibly related to onvansertib (3 patients: one at 60 mg/m^2, two at 90 mg/m^2): 8%
- patients discontinued from therapy because of treatment-related AEs (G2 fatigue, G3 mucositis (DLT), G4 rash (DLT)): Three
- Treatment-emergent AE: Anemia, All grades (%) [1]: 15 (37.5) %
- Treatment-emergent AE: Anemia, Grade 1-2 (%) [1]: 1 (2.5) %
- Treatment-emergent AE: Blood bilirubin increased, All grades (%) [1]: 4 (10) %
- Treatment-emergent AE: Blood bilirubin increased, Grace 3-4 (%) [1]: 1 (2.5) %
- Treatment-emergent AE: Blood bilirubin increased, Grade 1-2 (%) [1]: 3 (7.5) %
- Treatment-emergent AE: Constipation, All grades (%) [1]: 6 (15) %
- Treatment-emergent AE: Constipation, Grade 1-2 (%) [1]: 6 (15) %
- Treatment-emergent AE: Cough, All grades (%) [1]: 6 (15) %
- Treatment-emergent AE: Cough, Grade 1-2 (%) [1]: 6 (15) %
- Treatment-emergent AE: Decreased appetite, All grades (%) [1]: 6 (15) %
- Treatment-emergent AE: Decreased appetite, Grade 1-2 (%) [1]: 6 (15) %
- Treatment-emergent AE: Diarrhea, All grades (%) [1]: 8 (20) %
- Treatment-emergent AE: Diarrhea, Grade 1-2 (%) [1]: 8 (20) %
- Treatment-emergent AE: Dizziness, All grades (%) [1]: 5 (12.5) %
- Treatment-emergent AE: Dizziness, Grade 1-2 (%) [1]: 5 (12.5) %
- Treatment-emergent AE: Dyspnea, All grades (%) [1]: 10 (25) %
- Treatment-emergent AE: Dyspnea, Grace 3-4 (%) [1]: 2 (5) %
- Treatment-emergent AE: Dyspnea, Grade 1-2 (%) [1]: 8 (20) %
- Treatment-emergent AE: Edema, All grades (%) [1]: 8 (20) %
- Treatment-emergent AE: Edema, Grace 3-4 (%) [1]: 2 (5) %
- Treatment-emergent AE: Edema, Grade 1-2 (%) [1]: 6 (15) %
- Treatment-emergent AE: Epistaxis, All grades (%) [1]: 6 (15) %
- Treatment-emergent AE: Epistaxis, Grade 1-2 (%) [1]: 6 (15) %
- Treatment-emergent AE: Fatigue, All grades (%) [1]: 14 (35) %
- Treatment-emergent AE: Fatigue, Grade 1-2 (%) [1]: 14 (35) %
- Treatment-emergent AE: Febrile neutropenia, All grades (%) [1]: 12 (30) %
- Treatment-emergent AE: Headache, All grades (%) [1]: 4 (10) %
- Treatment-emergent AE: Headache, Grade 1-2 (%) [1]: 4 (10) %
- Treatment-emergent AE: Leukopenia, All grades (%) [1]: 5 (12.5) %
- Treatment-emergent AE: Leukopenia, Grace 3-4 (%) [1]: 12.5% and 5 (12.5) %
- Treatment-emergent AE: Lung infection, All grades (%) [1]: 4 (10) %
- Treatment-emergent AE: Lung infection, Grace 3-4 (%) [1]: 4 (10) %
- Treatment-emergent AE: Nausea/vomiting, All grades (%) [1]: 12 (30) %
- Treatment-emergent AE: Nausea/vomiting, Grade 1-2 (%) [1]: 12 (30) %
- Treatment-emergent AE: Neutropenia, All grades (%) [1]: 10 (25) %
- Treatment-emergent AE: Oropharyngeal pain, All grades (%) [1]: 4 (10) %
- Treatment-emergent AE: Oropharyngeal pain, Grade 1-2 (%) [1]: 4 (10) %
- Treatment-emergent AE: Pyrexia, All grades (%) [1]: 5 (12.5) %
- Treatment-emergent AE: Pyrexia, Grade 1-2 (%) [1]: 5 (12.5) %
- Treatment-emergent AE: Rash/pruritus, All grades (%) [1]: 11 (27.5) %
- Treatment-emergent AE: Rash/pruritus, Grace 3-4 (%) [1]: 1 (2.5) %
- Treatment-emergent AE: Rash/pruritus, Grade 1-2 (%) [1]: 10 (25) %
- Treatment-emergent AE: Stomatitis, All grades (%) [1]: 9 (22.5) %
- Treatment-emergent AE: Stomatitis, Grace 3-4 (%) [1]: 12.5% and 5 (12.5) %
- Treatment-emergent AE: Stomatitis, Grade 1-2 (%) [1]: 4 (10) %
- Treatment-emergent AE: Thrombocytopenia, All grades (%) [1]: 12 (30) %
- Treatment-emergent AE: Thrombocytopenia, Grade 1-2 (%) [1]: 2 (5) %
- G3 and G4 AE possibly related to onvansertib: anemia (all patients, N = 40): 12.5%
- G3 and G4 AE possibly related to onvansertib: leukopenia (all patients, N = 40): 5%
- G3 and G4 AE possibly related to onvansertib: neutropenia (all patients, N = 40): 15%
- G3 and G4 AE possibly related to onvansertib: thrombocytopenia (all patients, N = 40): 12.5%
- patients experiencing a DLT during the first cycle (arm B (decitabine), dose level 6 (90 mg/m^2), grade 3 mucositis and grade 4 rash): 2 of 6 and 2 of the 6
- MTD of onvansertib in combination with decitabine (arm B, oral days 1-5 + decitabine 20 mg/m^2 IV days 1-5, 28-day cycle): 60 mg/m^2
- DLTs (first five dose levels (12-60 mg/m^2), both arms (LDAC, decitabine)): no DLTs reported
- tolerability (first five dose levels (12-60 mg/m^2), with LDAC or decitabine): well tolerated
- skin toxicities (higher incidence and higher grade at 90 mg/m^2): observed at the last two dose levels of onvansertib (60 and 90 mg/m^2)
- SAEs considered as possibly related to onvansertib (of 71 SAEs): 13%
- patients with dose reduction of onvansertib due to hematologic toxicities (one from 18 mg/m^2, one from 27 mg/m^2 dose level): Two
- patients with SAEs (phase Ib, both arms): 33 patients
- total serious AEs (SAE) reported (phase Ib, both arms): 71
- Serious adverse event Aphasia: Number of events [2]: 1
- Serious adverse event Aphasia: Number of patients [2]: 1
- Serious adverse event Appendicitis: Number of events [2]: 1
- Serious adverse event Appendicitis: Number of patients [2]: 1
- Serious adverse event Arthralgia: Number of events [2]: 1
- Serious adverse event Arthralgia: Number of patients [2]: 1
- Serious adverse event Asthenia: Number of events [2]: 1
- Serious adverse event Asthenia: Number of patients [2]: 1
- Serious adverse event Atrial fibrillation: Number of events [2]: 1
- Serious adverse event Atrial fibrillation: Number of patients [2]: 1
- Serious adverse event Back pain: Number of events [2]: 1
- Serious adverse event Back pain: Number of patients [2]: 1
- Serious adverse event Disease progression: Number of events [2]: 1
- Serious adverse event Disease progression: Number of patients [2]: 1
- Serious adverse event Dyspnea: Number of events [2]: 1
- Serious adverse event Dyspnea: Number of patients [2]: 1
- Serious adverse event Edema peripheral: Number of events [2]: 1
- Serious adverse event Edema peripheral: Number of patients [2]: 1
- Serious adverse event Face edema: Number of events [2]: 1
- Serious adverse event Face edema: Number of patients [2]: 1
- Serious adverse event Febrile neutropenia: Number of events [2]: 25
- Serious adverse event Febrile neutropenia: Number of patients [2]: 17
- Serious adverse event Hematuria: Number of events [2]: 1
- Serious adverse event Hematuria: Number of patients [2]: 1
- Serious adverse event Hemorrhage intracranial: Number of events [2]: 1
- Serious adverse event Hemorrhage intracranial: Number of patients [2]: 1
- Serious adverse event Hyponatremia: Number of events [2]: 1
- Serious adverse event Hyponatremia: Number of patients [2]: 1
- Serious adverse event Infusion related reaction: Number of events [2]: 1
- Serious adverse event Infusion related reaction: Number of patients [2]: 1
- Serious adverse event Leukemic infiltration: Number of events [2]: 1
- Serious adverse event Leukemic infiltration: Number of patients [2]: 1
- Serious adverse event Lower gastrointestinal hemorrhage: Number of events [2]: 1
- Serious adverse event Lower gastrointestinal hemorrhage: Number of patients [2]: 1
- Serious adverse event Lung consolidation: Number of events [2]: 1
- Serious adverse event Lung consolidation: Number of patients [2]: 1
- Serious adverse event Lung infection: Number of events [2]: 5
- Serious adverse event Lung infection: Number of patients [2]: 5
- Serious adverse event Neck pain: Number of events [2]: 1
- Serious adverse event Neck pain: Number of patients [2]: 1
- Serious adverse event Neutrophil count decreased: Number of events [2]: 1
- Serious adverse event Neutrophil count decreased: Number of patients [2]: 1
- Serious adverse event Pain in jaw: Number of events [2]: 1
- Serious adverse event Pain in jaw: Number of patients [2]: 1
- Serious adverse event Palmar-plantar erythrodysaesthesia syndrome: Number of events [2]: 1
- Serious adverse event Palmar-plantar erythrodysaesthesia syndrome: Number of patients [2]: 1
- Serious adverse event Pharyngeal edema: Number of events [2]: 1
- Serious adverse event Pharyngeal edema: Number of patients [2]: 1
- Serious adverse event Physical deconditioning: Number of events [2]: 1
- Serious adverse event Physical deconditioning: Number of patients [2]: 1
- Serious adverse event Pleural effusion: Number of events [2]: 1
- Serious adverse event Pleural effusion: Number of patients [2]: 1
- Serious adverse event Pneumonia fungal: Number of events [2]: 1
- Serious adverse event Pneumonia fungal: Number of patients [2]: 1
- Serious adverse event Pneumonia: Number of events [2]: 3
- Serious adverse event Pneumonia: Number of patients [2]: 3
- Serious adverse event Pulmonary mass: Number of events [2]: 1
- Serious adverse event Pulmonary mass: Number of patients [2]: 1
- Serious adverse event Pyrexia: Number of events [2]: 2
- Serious adverse event Pyrexia: Number of patients [2]: 2
- Serious adverse event Rash maculo-papular: Number of events [2]: 1
- Serious adverse event Rash maculo-papular: Number of patients [2]: 1
- Serious adverse event Septic shock: Number of events [2]: 1
- Serious adverse event Septic shock: Number of patients [2]: 1
- Serious adverse event Seroma: Number of events [2]: 1
- Serious adverse event Seroma: Number of patients [2]: 1
- Serious adverse event Skin lesion: Number of events [2]: 1
- Serious adverse event Skin lesion: Number of patients [2]: 1
- Serious adverse event Soft tissue infection: Number of events [2]: 1
- Serious adverse event Soft tissue infection: Number of patients [2]: 1
- Serious adverse event Staphylococcal bacteremia: Number of events [2]: 1
- Serious adverse event Staphylococcal bacteremia: Number of patients [2]: 1
- Serious adverse event Stomatitis: Number of events [2]: 1
- Serious adverse event Stomatitis: Number of patients [2]: 1
- Serious adverse event Tumor lysis syndrome: Number of events [2]: 1
- Serious adverse event Tumor lysis syndrome: Number of patients [2]: 1
- Serious adverse event Urine output decreased: Number of events [2]: 1
- Serious adverse event Urine output decreased: Number of patients [2]: 1
- deaths while on treatment (phase Ib, all related to AML or its complications): Three
